Test results as given in ChEMBL document CHEMBL1201862, “PubChem BioAssay data set” (2004).
Values joined by “and” are separate entries in the source; they are usually repeats but may differ in a detail not shown here. Equal entries are not always repeated. Active and inactive are the calls of the source.

Columns and labels:
SUMO-activating enzyme = SUMO-activating enzyme (Homo sapiens, UniProt Q9UBT2); test: blockers of UBC9-mediated SUMO conjugation – biochemical, AlphaScreen, SUMOylation inhibitor project, confirmation (AID 2018); assay type: functional
[1] = target: DNA dC->dU-editing enzyme APOBEC-3A (Homo sapiens, UniProt P31941); test: Dose Response confirmation of small molecule APOBEC3A DNA Deaminase Inhibitors via a fluorescence-based single-stranded DNA deaminase assay. [Related pubchem assays (depositor defined):AID493011, AID493024]; assay type: functional
[2] = target: DNA dC->dU-editing enzyme APOBEC-3G (Homo sapiens, UniProt Q9HC16); assay type: functional;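 further: Dose-response counterscreen measuring inhibition of APOBEC3G DNA deaminase activity, run while confirming APOBEC3A inhibitors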
[3] = target: T1, Carboxy-terminal domain RNA polymerase II polypeptide A small phosphatase 1 (Homo sapiens, UniProt Q9GZU7); test: CTDSP1 inhibitors, concentration-response, biochemical, absorbance readout, ultra-high-throughput screen actives (AID 540297); assay type: functional
T1 sequence (Q9GZU7 whole entry): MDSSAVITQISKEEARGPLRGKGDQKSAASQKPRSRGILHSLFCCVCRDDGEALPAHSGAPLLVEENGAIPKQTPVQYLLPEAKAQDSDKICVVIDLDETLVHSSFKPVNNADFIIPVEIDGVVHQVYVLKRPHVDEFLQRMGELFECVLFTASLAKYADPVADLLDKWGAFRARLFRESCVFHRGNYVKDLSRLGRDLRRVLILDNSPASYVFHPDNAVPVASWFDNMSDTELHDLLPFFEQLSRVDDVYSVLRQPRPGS

[4] = THP-1 cell cytotoxicity, dose response, cytotoxicity control for non-replicating M. tuberculosis project (AID 489025); assay type: functional
[5] = HepG2 cell cytotoxicity, dose response, cytotoxicity control for non-replicating M. tuberculosis project (AID 489018); assay type: functional; settings: Mycobacterium tuberculosis
[6] = Vero E6 cell cytotoxicity, dose response, cytotoxicity control for non-replicating M. tuberculosis project, secondary assay (AID 492998); assay type: functional, VeroE6; settings: Vero C1008
cells = assay type: functional
Ion channel NompC = Ion channel NompC (Danio rerio, UniProt Q7T1G6); test: Dose response cell-based high-throughput screening assay for agonists of the transient receptor potential channel N1 (TRPN1). [Related pubchem assays (depositor defined):AID1424, AID1448]; assay type: functional
Mucolipin-3 = target: T2, Mucolipin-3 (Homo sapiens, UniProt Q8TDD5); test: Fluorescence counterscreen assay for […] agonists: dose response cell-based high-throughput screening assay to identify agonists of the transient receptor potential channel ML3 (TRPML3). [Related pubchem assays: 1424, 1448 ]; assay type: functional
T2 sequence (Q8TDD5 whole entry): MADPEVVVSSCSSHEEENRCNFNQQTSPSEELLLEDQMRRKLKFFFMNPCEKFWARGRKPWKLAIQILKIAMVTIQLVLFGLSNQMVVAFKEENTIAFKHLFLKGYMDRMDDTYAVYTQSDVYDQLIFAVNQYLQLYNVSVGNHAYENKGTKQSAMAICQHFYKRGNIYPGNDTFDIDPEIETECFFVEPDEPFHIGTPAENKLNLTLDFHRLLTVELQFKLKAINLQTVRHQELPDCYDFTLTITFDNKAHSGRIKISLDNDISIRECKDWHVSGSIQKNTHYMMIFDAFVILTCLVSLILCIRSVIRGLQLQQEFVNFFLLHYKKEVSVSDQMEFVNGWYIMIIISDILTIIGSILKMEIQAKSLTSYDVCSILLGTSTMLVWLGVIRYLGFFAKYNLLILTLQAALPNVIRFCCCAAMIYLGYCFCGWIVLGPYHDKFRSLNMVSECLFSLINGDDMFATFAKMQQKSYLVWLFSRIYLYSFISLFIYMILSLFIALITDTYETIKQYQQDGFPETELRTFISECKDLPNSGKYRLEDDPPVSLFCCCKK

[7] = target: T3, Probable nicotinate-nucleotide adenylyltransferase (Staphylococcus aureus (strain N315), UniProt P65502); assay type: functional, Staphylococcus aureus subsp. aureus N315;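 on IC50 Mean: confirmatory dose-response retesting of NadD inhibitor hits first found in an ultra-high-throughput screen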
[8] = target: T3, Probable nicotinate-nucleotide adenylyltransferase; assay type: functional, Staphylococcus aureus subsp. aureus N315; settings: read-out: IC50_Mean
[9] = target: 1-acylglycerol-3-phosphate O-acyltransferase ABHD5/Perilipin-5 (Homo sapiens, UniProt Q00G26+Q8WTS1); test: Luminescence-based biochemical high throughput dose response assay for inhibitors of the interaction of the lipase co-activator protein, abhydrolase domain containing 5 (ABHD5) with perilipin-5 (MLDP; PLIN5) (2K validation set). [Related pubchem assays (depositor defined):AID493035, AID493241]
Perilipin-1/ABHD5 = Perilipin-1/ABHD5 (Homo sapiens, UniProt O60240+Q8WTS1); test: Luminescence-based biochemical high throughput dose response assay for inhibitors of the interaction of the lipase co-activator protein, abhydrolase domain containing 5 (ABHD5) with perilipin-1 (PLIN1) (2K validation set). [Related pubchem assays (depositor defined):AID493027, AID493057]
[10] = IC50 of Artemis nuclease activity blockers – biochemical, fluorescence intensity, dose response (AID 720701); assay type: functional;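 further: Artemis endonuclease enzyme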
Cytochrome P450 1A2 = target: T4, Cytochrome P450 1A2 (Homo sapiens, UniProt P05177);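 further: PubChem cytochrome P450 panel assay, CYP1A2 panel member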
T4 sequence (P05177 whole entry): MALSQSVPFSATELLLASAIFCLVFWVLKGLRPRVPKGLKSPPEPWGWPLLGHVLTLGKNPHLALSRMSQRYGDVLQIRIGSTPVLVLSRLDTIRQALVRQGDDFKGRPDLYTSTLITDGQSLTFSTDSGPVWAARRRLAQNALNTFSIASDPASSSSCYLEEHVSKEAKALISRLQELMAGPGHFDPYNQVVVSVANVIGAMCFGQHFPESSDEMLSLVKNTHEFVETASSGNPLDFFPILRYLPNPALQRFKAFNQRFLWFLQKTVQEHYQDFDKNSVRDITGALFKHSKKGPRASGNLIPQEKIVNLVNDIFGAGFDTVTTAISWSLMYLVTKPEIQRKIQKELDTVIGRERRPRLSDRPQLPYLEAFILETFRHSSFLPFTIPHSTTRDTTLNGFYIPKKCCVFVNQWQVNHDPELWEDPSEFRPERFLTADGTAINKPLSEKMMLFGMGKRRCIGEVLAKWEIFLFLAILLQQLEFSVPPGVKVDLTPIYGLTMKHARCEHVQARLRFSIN

Cytochrome P450 3A4 = Cytochrome P450 3A4 (Homo sapiens, UniProt P08684);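 further: CYP3A4 tested as one member of a cytochrome P450 panel screen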
Coagulation factor XII = Coagulation factor XII (Homo sapiens, UniProt P00748); assay type: functional;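 further: activated factor XIIa alpha cleaving a fluorogenic AMC peptide substrate; inhibitor potency from loss of enzyme activity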
Tumor necrosis factor = Tumor necrosis factor (Homo sapiens, UniProt P01375); test: analog potency on TNFa NF-kB signaling – cell-based, revised, SAR follow-up (AID 2337); assay type: functional
HEK293 = test: cells; settings: Homo sapiens;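 further: cells exposed to compound for 14 hours overnight before viability readout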
[11] = target: T5, Mannose-6-phosphate isomerase (Homo sapiens, UniProt P34949); test: phosphomannose isomerase inhibition – biochemical, fluorescence intensity, confirmation (AID 1535)
T5 sequence (P34949 whole entry): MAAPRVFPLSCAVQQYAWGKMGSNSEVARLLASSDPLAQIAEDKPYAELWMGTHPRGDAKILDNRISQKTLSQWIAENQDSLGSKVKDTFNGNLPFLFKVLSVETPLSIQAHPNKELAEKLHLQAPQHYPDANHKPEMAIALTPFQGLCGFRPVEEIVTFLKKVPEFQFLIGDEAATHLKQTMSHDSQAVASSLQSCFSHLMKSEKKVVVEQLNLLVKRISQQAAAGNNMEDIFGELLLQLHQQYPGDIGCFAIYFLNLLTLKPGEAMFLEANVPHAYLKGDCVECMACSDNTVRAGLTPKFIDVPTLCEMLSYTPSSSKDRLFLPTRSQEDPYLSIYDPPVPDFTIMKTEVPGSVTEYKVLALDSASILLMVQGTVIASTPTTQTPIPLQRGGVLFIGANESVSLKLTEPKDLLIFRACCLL

Phosphomannomutase 2 = target: T6, Phosphomannomutase 2 (Homo sapiens, UniProt O15305); test: Counter screen SAR assay for PMM2 inhibitors via a fluorescence intensity assay. [Related pubchem assays (depositor defined):AID1545, AID1574]
T6 sequence (O15305 whole entry): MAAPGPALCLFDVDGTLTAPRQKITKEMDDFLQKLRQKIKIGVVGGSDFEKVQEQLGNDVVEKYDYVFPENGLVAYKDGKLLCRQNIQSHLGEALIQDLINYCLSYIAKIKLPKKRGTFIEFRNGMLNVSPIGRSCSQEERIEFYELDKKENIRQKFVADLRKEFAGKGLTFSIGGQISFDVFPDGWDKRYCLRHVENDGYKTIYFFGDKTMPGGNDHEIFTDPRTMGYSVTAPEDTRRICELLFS

[12] = target: Phosphoethanolamine/phosphocholine phosphatase (Homo sapiens, UniProt Q8TCT1); test: SAR assay for compounds that inhibit PHOSPHO1. [Related pubchem assays (depositor defined):AID1545, AID1565, AID1574]
[13] = target: T7, Alkaline phosphatase, tissue-nonspecific isozyme (Homo sapiens, UniProt P05186); test: potency against alkaline phosphatase TNAP – biochemical, luminescent, dose response, SAR follow-up (AID 1056)
T7 sequence (P05186 whole entry): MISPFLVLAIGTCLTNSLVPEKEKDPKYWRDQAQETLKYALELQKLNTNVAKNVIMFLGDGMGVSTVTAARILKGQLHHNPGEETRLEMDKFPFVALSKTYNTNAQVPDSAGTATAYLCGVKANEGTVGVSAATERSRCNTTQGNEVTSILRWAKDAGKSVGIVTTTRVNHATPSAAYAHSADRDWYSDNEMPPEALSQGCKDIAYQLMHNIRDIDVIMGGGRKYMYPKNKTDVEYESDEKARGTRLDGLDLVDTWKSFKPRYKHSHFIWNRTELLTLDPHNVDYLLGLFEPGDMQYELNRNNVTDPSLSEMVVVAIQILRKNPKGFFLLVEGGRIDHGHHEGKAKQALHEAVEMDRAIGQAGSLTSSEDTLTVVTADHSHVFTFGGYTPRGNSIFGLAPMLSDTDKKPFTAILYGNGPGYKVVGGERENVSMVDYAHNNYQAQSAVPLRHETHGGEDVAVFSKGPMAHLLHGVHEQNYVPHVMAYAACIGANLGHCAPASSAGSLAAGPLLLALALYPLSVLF

[14] = target: Intestinal-type alkaline phosphatase (Mus musculus, UniProt P24822); test: PubChem AID 488874; assay type: functional
[15] = target: T8, Intestinal-type alkaline phosphatase (Homo sapiens, UniProt P09923); test: human intestinal alkaline phosphatase activators, dose response, biochemical, luminescence, uHTS hits (AID 463120); assay type: functional
[16] = target: T8, Intestinal-type alkaline phosphatase; test: activation of human intestinal alkaline phosphatase – biochemical, luminescent, uHTS hits, set 2, dose response (AID 488817); assay type: functional;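 further: potency of activators that raise enzyme activity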
[17] = target: T7, Alkaline phosphatase, tissue-nonspecific isozyme; test: activation of tissue-nonspecific alkaline phosphatase – biochemical, TNAP isozyme, human IAP uHTS hits, selectivity assay for human IAP activator project, dose response (AID 488886); assay type: functional;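 further: potency of compounds raising TNAP activity as a selectivity check on IAP activators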

Sequence of DNA dC->dU-editing enzyme APOBEC-3G (Q9HC16 whole entry, the tested form may be a part): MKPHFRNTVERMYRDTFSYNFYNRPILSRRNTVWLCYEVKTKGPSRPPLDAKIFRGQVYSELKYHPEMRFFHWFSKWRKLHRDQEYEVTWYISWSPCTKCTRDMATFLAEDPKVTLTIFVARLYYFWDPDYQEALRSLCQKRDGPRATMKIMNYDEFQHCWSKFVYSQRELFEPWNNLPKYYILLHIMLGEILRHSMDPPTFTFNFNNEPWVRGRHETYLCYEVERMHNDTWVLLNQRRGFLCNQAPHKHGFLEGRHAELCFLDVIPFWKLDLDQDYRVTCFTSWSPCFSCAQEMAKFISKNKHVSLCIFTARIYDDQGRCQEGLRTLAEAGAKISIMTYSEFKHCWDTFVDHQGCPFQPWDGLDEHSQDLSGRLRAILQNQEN
Sequence of DNA dC->dU-editing enzyme APOBEC-3A (P31941 whole entry): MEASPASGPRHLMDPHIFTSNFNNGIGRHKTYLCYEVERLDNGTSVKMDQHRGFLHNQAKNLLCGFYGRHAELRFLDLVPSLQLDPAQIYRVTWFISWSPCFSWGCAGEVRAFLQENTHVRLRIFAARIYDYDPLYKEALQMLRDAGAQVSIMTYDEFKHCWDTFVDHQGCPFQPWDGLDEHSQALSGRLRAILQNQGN
Sequence of Perilipin-1/ABHD5 (Q8WTS1 whole entry, the tested form may be a part): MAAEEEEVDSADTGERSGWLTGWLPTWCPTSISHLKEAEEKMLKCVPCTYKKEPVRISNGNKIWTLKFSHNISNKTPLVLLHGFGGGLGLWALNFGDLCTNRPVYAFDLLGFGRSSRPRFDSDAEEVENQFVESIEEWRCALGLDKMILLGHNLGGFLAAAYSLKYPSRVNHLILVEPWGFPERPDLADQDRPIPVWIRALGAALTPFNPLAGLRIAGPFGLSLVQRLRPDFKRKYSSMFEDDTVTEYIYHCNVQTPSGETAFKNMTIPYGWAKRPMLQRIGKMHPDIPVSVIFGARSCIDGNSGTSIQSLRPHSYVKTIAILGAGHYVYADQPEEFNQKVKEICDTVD
Sequence of Perilipin-1/ABHD5 (O60240 whole entry, the tested form may be a part): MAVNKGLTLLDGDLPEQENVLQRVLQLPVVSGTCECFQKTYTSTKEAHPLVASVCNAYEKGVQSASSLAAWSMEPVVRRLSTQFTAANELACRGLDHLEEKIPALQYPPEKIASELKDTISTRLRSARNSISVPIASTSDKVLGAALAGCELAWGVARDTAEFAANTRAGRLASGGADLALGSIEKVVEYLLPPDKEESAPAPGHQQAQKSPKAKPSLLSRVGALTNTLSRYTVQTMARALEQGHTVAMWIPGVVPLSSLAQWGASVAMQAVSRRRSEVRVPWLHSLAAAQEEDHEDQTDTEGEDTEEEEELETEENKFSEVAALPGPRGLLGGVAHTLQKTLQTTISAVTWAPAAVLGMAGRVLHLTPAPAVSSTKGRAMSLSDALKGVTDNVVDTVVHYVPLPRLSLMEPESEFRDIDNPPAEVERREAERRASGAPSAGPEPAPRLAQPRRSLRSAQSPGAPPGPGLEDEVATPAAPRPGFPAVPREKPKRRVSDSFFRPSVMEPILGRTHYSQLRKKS
T3 sequence (P65502 whole entry): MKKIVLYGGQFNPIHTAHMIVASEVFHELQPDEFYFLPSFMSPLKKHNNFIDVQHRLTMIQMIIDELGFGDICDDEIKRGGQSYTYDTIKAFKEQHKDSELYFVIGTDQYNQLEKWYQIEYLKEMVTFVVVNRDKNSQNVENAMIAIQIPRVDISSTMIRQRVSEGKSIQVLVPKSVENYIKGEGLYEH
T8 sequence (P09923 whole entry): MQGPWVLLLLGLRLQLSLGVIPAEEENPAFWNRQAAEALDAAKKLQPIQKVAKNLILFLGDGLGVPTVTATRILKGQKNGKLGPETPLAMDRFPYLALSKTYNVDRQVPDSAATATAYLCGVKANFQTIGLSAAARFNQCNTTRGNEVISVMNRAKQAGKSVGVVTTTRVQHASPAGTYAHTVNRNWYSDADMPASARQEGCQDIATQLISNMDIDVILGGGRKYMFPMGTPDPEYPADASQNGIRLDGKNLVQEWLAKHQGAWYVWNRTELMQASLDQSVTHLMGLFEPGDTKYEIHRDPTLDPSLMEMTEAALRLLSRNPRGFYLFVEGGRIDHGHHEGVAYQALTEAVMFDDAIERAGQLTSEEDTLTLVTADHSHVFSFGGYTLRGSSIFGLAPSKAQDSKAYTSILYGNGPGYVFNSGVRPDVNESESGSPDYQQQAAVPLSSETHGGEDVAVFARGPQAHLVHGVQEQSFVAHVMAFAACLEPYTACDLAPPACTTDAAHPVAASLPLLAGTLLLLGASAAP
Sequence of 1-acylglycerol-3-phosphate O-acyltransferase ABHD5/Perilipin-5 (Q00G26 whole entry, the tested form may be a part): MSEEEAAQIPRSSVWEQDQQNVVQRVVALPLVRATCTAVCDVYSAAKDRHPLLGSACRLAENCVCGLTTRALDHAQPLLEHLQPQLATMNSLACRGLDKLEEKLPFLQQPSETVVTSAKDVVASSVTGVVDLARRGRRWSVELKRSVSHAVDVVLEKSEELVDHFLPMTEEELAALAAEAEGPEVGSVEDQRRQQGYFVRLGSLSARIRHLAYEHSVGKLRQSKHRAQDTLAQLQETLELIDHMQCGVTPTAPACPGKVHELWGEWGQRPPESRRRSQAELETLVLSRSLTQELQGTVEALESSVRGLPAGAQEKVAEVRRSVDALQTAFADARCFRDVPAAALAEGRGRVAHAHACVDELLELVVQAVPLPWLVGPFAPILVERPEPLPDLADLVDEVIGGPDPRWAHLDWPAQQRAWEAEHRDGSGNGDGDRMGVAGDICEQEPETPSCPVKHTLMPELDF
Sequence of 1-acylglycerol-3-phosphate O-acyltransferase ABHD5/Perilipin-5 (Q8WTS1 whole entry, the tested form may be a part): as the sequence (Q8WTS1 whole entry, the tested form may be a part) above
Sequence of Coagulation factor XII (P00748 20-372 limits assumed): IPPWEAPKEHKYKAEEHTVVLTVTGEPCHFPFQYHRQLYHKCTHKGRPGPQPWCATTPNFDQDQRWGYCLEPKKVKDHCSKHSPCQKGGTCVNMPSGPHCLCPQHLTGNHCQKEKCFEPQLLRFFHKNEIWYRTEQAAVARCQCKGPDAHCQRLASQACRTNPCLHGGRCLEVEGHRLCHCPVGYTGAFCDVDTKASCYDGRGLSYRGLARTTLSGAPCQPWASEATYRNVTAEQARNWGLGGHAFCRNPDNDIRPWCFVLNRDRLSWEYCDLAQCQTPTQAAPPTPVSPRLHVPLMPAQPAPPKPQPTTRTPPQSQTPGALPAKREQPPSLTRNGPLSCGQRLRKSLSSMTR
Sequence of Coagulation factor XII (P00748 373-615 limits assumed): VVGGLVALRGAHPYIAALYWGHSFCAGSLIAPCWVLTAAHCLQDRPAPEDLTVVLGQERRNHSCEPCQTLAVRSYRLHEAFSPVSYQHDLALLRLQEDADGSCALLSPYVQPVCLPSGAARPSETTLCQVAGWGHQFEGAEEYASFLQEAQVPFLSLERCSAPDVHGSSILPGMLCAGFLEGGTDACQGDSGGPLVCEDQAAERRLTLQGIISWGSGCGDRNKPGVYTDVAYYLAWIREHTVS
Sequence of Tumor necrosis factor (P01375 whole entry): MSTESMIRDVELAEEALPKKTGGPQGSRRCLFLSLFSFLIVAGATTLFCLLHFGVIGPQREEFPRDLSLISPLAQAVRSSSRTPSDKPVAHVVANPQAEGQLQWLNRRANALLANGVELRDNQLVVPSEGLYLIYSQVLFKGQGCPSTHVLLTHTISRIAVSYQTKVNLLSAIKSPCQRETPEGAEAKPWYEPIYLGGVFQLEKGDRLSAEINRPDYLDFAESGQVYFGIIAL
Sequence of Cytochrome P450 3A4 (P08684 whole entry): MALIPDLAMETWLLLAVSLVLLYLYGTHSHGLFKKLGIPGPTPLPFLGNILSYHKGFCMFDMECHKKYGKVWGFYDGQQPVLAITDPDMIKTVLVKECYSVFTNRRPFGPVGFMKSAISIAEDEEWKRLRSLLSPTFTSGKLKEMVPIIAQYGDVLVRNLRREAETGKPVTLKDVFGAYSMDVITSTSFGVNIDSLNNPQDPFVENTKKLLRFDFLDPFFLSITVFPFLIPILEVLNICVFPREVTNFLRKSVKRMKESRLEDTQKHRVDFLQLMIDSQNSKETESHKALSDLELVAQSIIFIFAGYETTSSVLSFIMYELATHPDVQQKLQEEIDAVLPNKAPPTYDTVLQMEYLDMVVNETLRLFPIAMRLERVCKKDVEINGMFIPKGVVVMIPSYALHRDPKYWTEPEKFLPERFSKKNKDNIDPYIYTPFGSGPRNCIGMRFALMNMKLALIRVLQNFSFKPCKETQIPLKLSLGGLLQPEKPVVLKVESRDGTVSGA
Sequence of Intestinal-type alkaline phosphatase (Mus musculus, UniProt P24822) (P24822 whole entry): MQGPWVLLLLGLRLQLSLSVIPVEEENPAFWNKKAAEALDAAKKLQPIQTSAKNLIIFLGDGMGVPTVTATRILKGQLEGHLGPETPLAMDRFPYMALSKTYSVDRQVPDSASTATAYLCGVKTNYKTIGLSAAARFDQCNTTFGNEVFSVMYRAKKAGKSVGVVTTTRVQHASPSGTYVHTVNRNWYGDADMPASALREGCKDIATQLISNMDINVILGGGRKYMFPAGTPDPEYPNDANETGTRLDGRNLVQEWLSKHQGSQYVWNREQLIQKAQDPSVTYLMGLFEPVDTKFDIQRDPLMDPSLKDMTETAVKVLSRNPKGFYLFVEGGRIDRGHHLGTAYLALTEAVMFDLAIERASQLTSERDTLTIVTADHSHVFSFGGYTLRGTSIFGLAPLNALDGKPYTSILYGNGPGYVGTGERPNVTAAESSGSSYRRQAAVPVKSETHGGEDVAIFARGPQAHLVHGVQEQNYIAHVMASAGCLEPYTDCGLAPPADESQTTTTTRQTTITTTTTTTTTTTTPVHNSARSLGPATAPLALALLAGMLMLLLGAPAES

With `CCOc1ccc(-n2c(SCC(=O)Nc3ccc(CC)cc3)nc3nnc(C)c-3c2N)cc1` the IC50 (SUMO-activating enzyme) was 36.9 µM (active).

In the case of `C=CC#CC1(O)CC(C)[N+](C)(C)CC1C` (stereo not drawn), the IC50 [1] is reported as 1.97 µM (active), the IC50 [2] is reported as 5.58 µM (active) and the IC50 [3] is reported as 7.57 µM (active).

With `O=C(NC(=S)N1CCc2ccccc21)c1ccccc1` the CC50 [4] was > 40 µM (active), the CC50 [5] was > 20 µM (active) and the CC50 [6] was > 20 µM (active). The IC50 (cells) was 9.86 µM (active).

For `COc1ccc(C(=O)NNC(=S)NC(=O)c2cc(-c3ccccc3)nc3ccccc23)cc1`, the EC50 (Ion channel NompC) was > 29.9 µM (inactive), the EC50 (Mucolipin-3) was > 29.9 µM (not active) and the IC50 [7] was 7.14 µM (active). The IC50 [8] was 26.4 µM (active).

For `N#C/C(=C/c1ccccc1)C(=O)NCc1ccccc1`, the IC50 [9] was 17.2 µM (inactive) and the IC50 (Perilipin-1/ABHD5) was 13.1 µM (inactive).

For `Cc1ccc(C2=NOC(=O)/C2=C\C=C\c2ccccc2)cc1`, the IC50 [9] was 1.12 µM (active) and the IC50 (Perilipin-1/ABHD5) was 1.23 µM (active).

With `CCN1CCc2nc(NC(=O)CC(c3ccccc3)c3ccccc3)sc2C1` the IC50 [10] was 9.25 µM (active), the AC50 (Cytochrome P450 1A2) was 15.8 µM (inconclusive) and the AC50 (Cytochrome P450 3A4) was “inconclusive”.

For `CCN1C(NCc2cc(OC)c(OC)c(OC)c2)=N[C@@H](c2ccccc2)C(C(=O)OC)=C1C`, the IC50 [1] was 4.15 µM (active) and the IC50 [2] was 3.54 µM (active).

With `CNS(=O)(=O)c1cc(C(=O)O)ccc1OC` the IC50 (Coagulation factor XII) was > 50 µM (inactive).

In the case of `CC(=O)c1ccc(N2CCN(S(=O)(=O)c3ccc4c(c3)CCN4C(C)=O)CC2)cc1`, the IC50 (Tumor necrosis factor) is reported as 13.2 µM (active) and the IC50 (HEK293) is reported as > 20 µM (inactive).

With `Cc1ccc(C)c(-n2sc3cc(F)ccc3c2=O)c1` the IC50 [11] was 0.985 µM (active), the IC50 (Phosphomannomutase 2) was 9.95 µM (active) and 4.57 µM (active) and the IC50 [12] was 4.1 µM (inactive). For the same compound, the IC50 [13] was > 100 µM (inactive).

With `Cc1ccc(S(=O)(=O)NCCC(=O)NNC(=O)COc2ccc(Br)cc2)cc1C` the IC50 [14] was 89.4 µM (active), the EC50 [15] was 11.5 µM (active) and the EC50 [16] was 16 µM (active). The EC50 [17] was 16.4 µM (active).

For `CC(C)=CCC/C(C)=C/CC/C(C)=N/O`, the IC50 (Coagulation factor XII) was > 50 µM (inactive).
